In patent US20200239957A1, “PREDICTION AND TREATMENT OF HEART FAILURE” (The Regents of the University of Colorado, a body corporate, priority 2013, published 2020):

Experiments:
PDE3A promoter = PDE3A promoter (INS/DEL) luciferase reporter in transfected NRVMs; assay type: cell-based, rat; conditions: for luciferase activity of the DEL promoter construct: DEL construct containing the CRE; for luciferase activity of the DEL promoter construct / up-regulation of PDE3A expression, INS construct (luciferase): 1 μmol/L dibutyryl cAMP or 5 μmol/L enoximone for 48 hours
Experimental: Neonatal rat ventricular myocytes (NRVMs) were prepared from the hearts of 2-day-old rat pups by enzymatic digestion as described (Simpson et al., 1982; Waspe et al., 1990; Singh et al., 2000).
Cloning of the PDE3A promoter region was performed using PCR primers that amplified the −1434/+440 region of the human promoter that contains the INS/DEL genotype. The resulting fragment was cloned in the Promega pGL3-basic vector using MluI and BglII sites as previously described (Sucharov et al., 2003). Cloning of the construct that lacks the cAMP response element (CRE) was done by amplifying the −1066/+440 region of the PDE3A promoter downstream from the CRE site.
Firefly luciferase plasmid DNA was transfected using the Lonza system as previously described (Sucharov et al., 2008). […] Luciferase activity was determined as previously described (Sucharov et al., 2003).

rtPDE3A = rtPDE3A (Homo sapiens, UniProt Q14432); test: PDE3 activity assay, cAMP hydrolysis with and without cilostazol; assay type: biochemical; conditions: 0.1 μmol/L cilostazol; read-out: inhibition of rtPDE3A, submaximal (printed as IC44)
Experimental: cAMP-hydrolytic activity was quantified according to the method of Kincaid and Manganiello (1988) as described in detail previously (Movesian et al., 1991). Briefly, microsomal fractions were added to a reaction mixture containing 0.3 mol/L NaHEPES, 0.6 mmol/L EGTA, […] MgCl2 (pH 7.5) and 0.1 μmol/L [^3H]cAMP (Perkin Elmer, Boston, Mass.). cAMP hydrolysis occurred for 10 minutes at 30° C., then the reaction was stopped by the addition of 10.1 mmol/L unlabeled cAMP and […] unlabeled 5′AMP in 0.25 mol/L HCl. The reaction mixture was neutralized with NaOH. [^3H]5′AMP was converted to [^3H]adenosine by incubation with Crotalus atrox venom (30 mg/ml) for 30 minutes at 30° C. The reaction mixture was then applied to QAE-Sephadex columns, and [^3H]adenosine was eluted with water. Cyclic AMP hydrolysis in pmol/min/mg was determined by measuring [^3H]adenosine in the eluent. PDE activity was measured in the presence and absence of 0.1 μmol/L cilostazol, a concentration that inhibits rtPDE3A submaximally (IC44); PDE3 activity was calculated by dividing the difference in activity in the presence and absence of cilostazol by the fractional inhibition of PDE3 activity at this concentration.

[1] = heart failure patients, continuous intravenous treatment, cited from earlier work
β-ARs = conditions: heart failure patients, continuous intravenous treatment; cited from earlier work

rtPDE3A, sequence (Q14432 whole entry): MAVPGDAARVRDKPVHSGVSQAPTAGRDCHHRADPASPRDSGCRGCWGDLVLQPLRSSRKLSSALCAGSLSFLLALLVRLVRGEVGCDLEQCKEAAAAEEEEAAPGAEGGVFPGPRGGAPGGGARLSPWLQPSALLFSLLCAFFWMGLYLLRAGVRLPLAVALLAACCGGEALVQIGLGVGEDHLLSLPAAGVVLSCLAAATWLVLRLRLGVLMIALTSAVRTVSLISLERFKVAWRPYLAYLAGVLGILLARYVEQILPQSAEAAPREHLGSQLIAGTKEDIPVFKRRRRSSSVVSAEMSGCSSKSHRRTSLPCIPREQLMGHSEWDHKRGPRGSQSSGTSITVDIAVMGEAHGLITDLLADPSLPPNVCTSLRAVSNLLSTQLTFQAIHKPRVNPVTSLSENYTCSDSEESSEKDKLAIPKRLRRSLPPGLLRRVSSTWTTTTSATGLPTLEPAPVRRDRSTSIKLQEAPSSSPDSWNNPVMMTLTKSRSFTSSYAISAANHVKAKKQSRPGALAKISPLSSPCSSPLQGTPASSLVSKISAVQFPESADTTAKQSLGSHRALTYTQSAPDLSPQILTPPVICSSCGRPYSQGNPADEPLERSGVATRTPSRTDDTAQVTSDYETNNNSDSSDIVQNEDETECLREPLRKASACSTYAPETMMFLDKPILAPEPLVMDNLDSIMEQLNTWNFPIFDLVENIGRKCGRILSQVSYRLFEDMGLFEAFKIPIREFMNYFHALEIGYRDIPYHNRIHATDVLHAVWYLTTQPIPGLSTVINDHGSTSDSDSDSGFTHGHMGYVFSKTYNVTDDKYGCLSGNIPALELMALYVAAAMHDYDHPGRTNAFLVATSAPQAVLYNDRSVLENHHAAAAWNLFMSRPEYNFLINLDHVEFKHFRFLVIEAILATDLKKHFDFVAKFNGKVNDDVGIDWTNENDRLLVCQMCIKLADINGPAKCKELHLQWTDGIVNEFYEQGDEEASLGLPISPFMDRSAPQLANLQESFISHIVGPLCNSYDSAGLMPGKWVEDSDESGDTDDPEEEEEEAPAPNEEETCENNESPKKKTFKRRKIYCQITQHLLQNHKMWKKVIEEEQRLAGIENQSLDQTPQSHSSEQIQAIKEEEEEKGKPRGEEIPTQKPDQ

CSc1ccc(C(=O)c2[nH]c(=O)[nH]c2C)cc1 [enoximone]
luciferase activity of the DEL promoter construct (PDE3A promoter): increased luciferase activity
up-regulation of PDE3A expression, INS construct (luciferase) (PDE3A promoter): no evidence of up-regulation

O=C1CCc2cc(OCCCCc3nnnn3C3CCCCC3)ccc2N1 [cilostazol]
inhibition at 0.1 µM (rtPDE3A): 44%

CCCC(=O)Nc1ncnc2c1ncn2[C@@H]1O[C@@H]2COP(=O)(O)O[C@H]2[C@H]1OC(=O)CCC [dibutyryl cAMP]
luciferase activity of the DEL promoter construct (PDE3A promoter): increased luciferase activity
cAMP-induced increase in promoter activity, DEL construct with CRE sequence deleted (PDE3A promoter; DEL construct lacking the CRE (-1066/+440), 48 hours): prevented
up-regulation of PDE3A expression, INS construct (luciferase) (PDE3A promoter): no evidence of up-regulation

Nc1cc(-c2ccncc2)c[nH]c1=O [amrinone]
cardiac output at 24 hours ([1]; 24 hours): increase
cardiac output by 72 hours ([1]; 72 hours): return to baseline values
β-ARs in lymphocytes of treated patients (β-ARs): Down-regulation and desensitization
